Measurements from PubChem BioAssay AID1745844 (Carcinogenic Potency Database (CPDB), 2022).

System: rodent lifetime carcinogenesis bioassay, tumor incidence TD50
Assay: chronic cancer bioassays in animals – CPDB, compiled studies (AID 1745844)
Settings: by gavage

Compound: CC(C)=CCl
- TD50 (mouse, strain B6C3F1, females, site: Harderian gland, lesion: papillary adenoma, dosed 102 weeks, study length 103 weeks): 146 mg/kg/day
- TD50 (mouse, strain B6C3F1, females, site: any site (literature study), lesion: several types, types named in the paper, dosed 102 weeks, study length 103 weeks): 14.6 mg/kg/day
- TD50 (mouse, strain B6C3F1, females, site: forestomach, lesion: adenosquamous carcinoma + carcinoma, NOS + squamous-cell carcinoma + squamous-cell papilloma, dosed 102 weeks, study length 103 weeks): 14.3 mg/kg/day
- TD50 (mouse, strain B6C3F1, females, site: forestomach, lesion: adenosquamous carcinoma + carcinoma, NOS + squamous-cell carcinoma, dosed 102 weeks, study length 103 weeks): 14.3 mg/kg/day
- TD50 (mouse, strain B6C3F1, females, site: forestomach, lesion: squamous-cell carcinoma + squamous-cell papilloma, dosed 102 weeks, study length 103 weeks): 14.4 mg/kg/day
- TD50 (mouse, strain B6C3F1, females, site: forestomach, lesion: squamous-cell carcinoma, dosed 102 weeks, study length 103 weeks): 14.4 mg/kg/day
- TD50 (mouse, strain B6C3F1, females, site: forestomach, lesion: squamous-cell papilloma, dosed 102 weeks, study length 103 weeks): 373 mg/kg/day
- TD50 (mouse, strain B6C3F1, females, site: jejunum + liver + multiple organs + spleen, lesion: malignant lymphoma, lymphocytic type + malignant lymphoma, mixed type + malignant lymphoma, histiocytic type, dosed 102 weeks, study length 103 weeks): 124 mg/kg/day
- TD50 (mouse, strain B6C3F1, females, site: liver + multiple organs + spleen, lesion: malignant lymphoma, mixed type, dosed 102 weeks, study length 103 weeks): 229 mg/kg/day
- TD50 (mouse, strain B6C3F1, females, site: liver, lesion: hepatocellular adenoma + hepatocellular carcinoma + neoplastic nodule, dosed 102 weeks, study length 103 weeks): 150 mg/kg/day
- TD50 (mouse, strain B6C3F1, females, site: liver, lesion: hepatocellular adenoma, dosed 102 weeks, study length 103 weeks): 150 mg/kg/day
- TD50 (mouse, strain B6C3F1, females, site: lung, lesion: alveolar/bronchiolar adenoma + alveolar/bronchiolar carcinoma, dosed 102 weeks, study length 103 weeks): 186 mg/kg/day
- TD50 (mouse, strain B6C3F1, females, site: lung, lesion: alveolar/bronchiolar adenoma, dosed 102 weeks, study length 103 weeks): 235 mg/kg/day
- TD50 (mouse, strain B6C3F1, males, site: Harderian gland, lesion: papillary adenoma, dosed 102 weeks, study length 103 weeks): 149 mg/kg/day
- TD50 (mouse, strain B6C3F1, males, site: any site (literature study), lesion: several types, types named in the paper, dosed 102 weeks, study length 103 weeks): 13.9 mg/kg/day
- TD50 (mouse, strain B6C3F1, males, site: duodenum + lymph node + multiple organs + spleen, lesion: malignant lymphoma, mixed type + malignant lymphoma, NOS + granulocytic leukemia + malignant lymphoma, histiocytic type + malign, dosed 102 weeks, study length 103 weeks): 148 mg/kg/day
- TD50 (mouse, strain B6C3F1, males, site: duodenum + lymph node + multiple organs + spleen, lesion: malignant lymphoma, mixed type + malignant lymphoma, NOS + malignant lymphoma, histiocytic type + malignant lymphoma, lymphocy, dosed 102 weeks, study length 103 weeks): 154 mg/kg/day
- TD50 (mouse, strain B6C3F1, males, site: forestomach + preputial gland, lesion: squamous-cell carcinoma + squamous-cell papilloma, dosed 102 weeks, study length 103 weeks): 15.2 mg/kg/day
- TD50 (mouse, strain B6C3F1, males, site: forestomach, lesion: squamous-cell carcinoma + squamous-cell papilloma, dosed 102 weeks, study length 103 weeks): 15.5 mg/kg/day
- TD50 (mouse, strain B6C3F1, males, site: forestomach, lesion: squamous-cell carcinoma, dosed 102 weeks, study length 103 weeks): 17.2 mg/kg/day
- TD50 (mouse, strain B6C3F1, males, site: forestomach, lesion: squamous-cell papilloma, dosed 102 weeks, study length 103 weeks): 195 mg/kg/day
- TD50 (mouse, strain B6C3F1, males, site: liver + mesenteric lymph node + preputial gland + spleen, lesion: hemangioma + hemangiosarcoma, dosed 102 weeks, study length 103 weeks): 221 mg/kg/day
- TD50 (mouse, strain B6C3F1, males, site: liver + spleen, lesion: hemangiosarcoma, dosed 102 weeks, study length 103 weeks): 375 mg/kg/day
- TD50 (mouse, strain B6C3F1, males, site: liver, lesion: hepatocellular adenoma + hepatocellular carcinoma + neoplastic nodule, dosed 102 weeks, study length 103 weeks): 48.8 mg/kg/day
- TD50 (mouse, strain B6C3F1, males, site: liver, lesion: hepatocellular adenoma + hepatocellular carcinoma, dosed 102 weeks, study length 103 weeks): 48.8 mg/kg/day
- TD50 (mouse, strain B6C3F1, males, site: liver, lesion: hepatocellular adenoma, dosed 102 weeks, study length 103 weeks): 87.1 mg/kg/day
- TD50 (mouse, strain B6C3F1, males, site: liver, lesion: hepatocellular carcinoma, dosed 102 weeks, study length 103 weeks): 104 mg/kg/day
- TD50 (mouse, strain B6C3F1, males, site: lung, lesion: alveolar/bronchiolar adenoma + alveolar/bronchiolar carcinoma, dosed 102 weeks, study length 103 weeks): 87.7 mg/kg/day
- TD50 (mouse, strain B6C3F1, males, site: lung, lesion: alveolar/bronchiolar adenoma, dosed 102 weeks, study length 103 weeks): 117 mg/kg/day
- TD50 (mouse, strain B6C3F1, males, site: lung, lesion: alveolar/bronchiolar carcinoma, dosed 102 weeks, study length 103 weeks): 199 mg/kg/day
- TD50 (mouse, strain B6C3F1, males, site: preputial gland, lesion: squamous-cell carcinoma, dosed 102 weeks, study length 103 weeks): 90.7 mg/kg/day
- TD50 (rat, strain Fischer 344, females, site: any site (literature study), lesion: several types, types named in the paper, dosed 100 weeks, study length 104 weeks): 11.9 mg/kg/day
- TD50 (rat, strain Fischer 344, females, site: esophagus + forestomach + gingiva + nasal cavity + oral mucosa + palate + tongue, lesion: squamous-cell carcinoma + squamous-cell papilloma + adenocarcinoma + adenoma, NOS + carcinoma, NOS, dosed 100 weeks, study length 104 weeks): 25.3 mg/kg/day
- TD50 (rat, strain Fischer 344, females, site: esophagus, lesion: squamous-cell carcinoma, dosed 100 weeks, study length 104 weeks): 250 mg/kg/day
- TD50 (rat, strain Fischer 344, females, site: forestomach, lesion: squamous-cell carcinoma + squamous-cell papilloma, dosed 100 weeks, study length 104 weeks): 95.2 mg/kg/day
- TD50 (rat, strain Fischer 344, females, site: forestomach, lesion: squamous-cell carcinoma, dosed 100 weeks, study length 104 weeks): 191 mg/kg/day
- TD50 (rat, strain Fischer 344, females, site: forestomach, lesion: squamous-cell papilloma, dosed 100 weeks, study length 104 weeks): 209 mg/kg/day
- TD50 (rat, strain Fischer 344, females, site: gingiva + oral mucosa + palate + tongue, lesion: squamous-cell carcinoma + squamous-cell papilloma, dosed 100 weeks, study length 104 weeks): 318 mg/kg/day
- TD50 (rat, strain Fischer 344, females, site: lung, lesion: alveolar/bronchiolar adenoma + alveolar/bronchiolar carcinoma, dosed 100 weeks, study length 104 weeks): 218 mg/kg/day
- TD50 (rat, strain Fischer 344, females, site: mammary gland, lesion: adenocarcinoma + fibroadenoma, dosed 100 weeks, study length 104 weeks): 36.7 mg/kg/day
- TD50 (rat, strain Fischer 344, females, site: mammary gland, lesion: fibroadenoma, dosed 100 weeks, study length 104 weeks): 38.3 mg/kg/day
- TD50 (rat, strain Fischer 344, females, site: multiple organs, lesion: lymphocytic leukemia + mononuclear-cell leukemia, dosed 100 weeks, study length 104 weeks): 170 mg/kg/day
- TD50 (rat, strain Fischer 344, females, site: multiple organs, lesion: mononuclear-cell leukemia, dosed 100 weeks, study length 104 weeks): 202 mg/kg/day
- TD50 (rat, strain Fischer 344, females, site: nasal cavity, lesion: adenocarcinoma + adenoma, NOS + carcinoma, NOS + squamous-cell carcinoma, dosed 100 weeks, study length 104 weeks): 34.3 mg/kg/day
- TD50 (rat, strain Fischer 344, females, site: nasal cavity, lesion: adenocarcinoma + adenoma, NOS, dosed 100 weeks, study length 104 weeks): 143 mg/kg/day
- TD50 (rat, strain Fischer 344, females, site: nasal cavity, lesion: adenocarcinoma + carcinoma, NOS + squamous-cell carcinoma, dosed 100 weeks, study length 104 weeks): 35.2 mg/kg/day
- TD50 (rat, strain Fischer 344, females, site: nasal cavity, lesion: adenocarcinoma, dosed 100 weeks, study length 104 weeks): 159 mg/kg/day
- TD50 (rat, strain Fischer 344, females, site: nasal cavity, lesion: carcinoma, NOS + squamous-cell carcinoma, dosed 100 weeks, study length 104 weeks): 46.8 mg/kg/day
- TD50 (rat, strain Fischer 344, females, site: nasal cavity, lesion: carcinoma, NOS, dosed 100 weeks, study length 104 weeks): 52.7 mg/kg/day
- TD50 (rat, strain Fischer 344, females, site: oral mucosa + palate, lesion: squamous-cell papilloma, dosed 100 weeks, study length 104 weeks): 1010 mg/kg/day
- TD50 (rat, strain Fischer 344, females, site: oral mucosa, lesion: squamous-cell papilloma, dosed 100 weeks, study length 104 weeks): 1220 mg/kg/day
- TD50 (rat, strain Fischer 344, females, site: pituitary gland, anterior, lesion: adenoma, NOS + chromophobe adenoma + chromophobe carcinoma, dosed 100 weeks, study length 104 weeks): 68 mg/kg/day
- TD50 (rat, strain Fischer 344, females, site: pituitary gland, anterior, lesion: adenoma, NOS + chromophobe adenoma, dosed 100 weeks, study length 104 weeks): 101 mg/kg/day
- TD50 (rat, strain Fischer 344, females, site: pituitary gland, anterior, lesion: chromophobe adenoma + chromophobe carcinoma, dosed 100 weeks, study length 104 weeks): 71.7 mg/kg/day
- TD50 (rat, strain Fischer 344, females, site: pituitary gland, anterior, lesion: chromophobe adenoma, dosed 100 weeks, study length 104 weeks): 109 mg/kg/day
- TD50 (rat, strain Fischer 344, females, site: pituitary gland, anterior, lesion: chromophobe carcinoma, dosed 100 weeks, study length 104 weeks): 222 mg/kg/day
- TD50 (rat, strain Fischer 344, females, site: thyroid gland, lesion: c-cell adenoma, dosed 100 weeks, study length 104 weeks): 225 mg/kg/day
- TD50 (rat, strain Fischer 344, females, site: thyroid gland, lesion: follicular-cell adenoma + follicular-cell carcinoma, dosed 100 weeks, study length 104 weeks): 131 mg/kg/day
- TD50 (rat, strain Fischer 344, females, site: thyroid gland, lesion: follicular-cell carcinoma, dosed 100 weeks, study length 104 weeks): 136 mg/kg/day
- TD50 (rat, strain Fischer 344, females, site: uterus, lesion: endometrial stromal polyp + endometrial stromal sarcoma, dosed 100 weeks, study length 104 weeks): 84.9 mg/kg/day
- TD50 (rat, strain Fischer 344, females, site: uterus, lesion: endometrial stromal polyp, dosed 100 weeks, study length 104 weeks): 91.9 mg/kg/day
- TD50 (rat, strain Fischer 344, males, site: adrenal gland + adrenal medulla, lesion: pheochromocytoma, malignant + pheochromocytoma, dosed 94 weeks, study length 104 weeks): 86.7 mg/kg/day
- TD50 (rat, strain Fischer 344, males, site: any site (literature study), lesion: several types, types named in the paper, dosed 94 weeks, study length 104 weeks): 10.2 mg/kg/day
- TD50 (rat, strain Fischer 344, males, site: esophagus + forestomach + lip + nasal cavity + palate + tongue, lesion: squamous-cell carcinoma + squamous-cell papilloma + adenocarcinoma + carcinoma, NOS, dosed 94 weeks, study length 104 weeks): 17.5 mg/kg/day
- TD50 (rat, strain Fischer 344, males, site: esophagus, lesion: squamous-cell carcinoma + squamous-cell papilloma, dosed 94 weeks, study length 104 weeks): 81.6 mg/kg/day
- TD50 (rat, strain Fischer 344, males, site: esophagus, lesion: squamous-cell carcinoma, dosed 94 weeks, study length 104 weeks): 143 mg/kg/day
- TD50 (rat, strain Fischer 344, males, site: esophagus, lesion: squamous-cell papilloma, dosed 94 weeks, study length 104 weeks): 218 mg/kg/day
- TD50 (rat, strain Fischer 344, males, site: forestomach, lesion: squamous-cell carcinoma + squamous-cell papilloma, dosed 94 weeks, study length 104 weeks): 41.6 mg/kg/day
- TD50 (rat, strain Fischer 344, males, site: forestomach, lesion: squamous-cell carcinoma, dosed 94 weeks, study length 104 weeks): 135 mg/kg/day
- TD50 (rat, strain Fischer 344, males, site: forestomach, lesion: squamous-cell papilloma, dosed 94 weeks, study length 104 weeks): 67.1 mg/kg/day
- TD50 (rat, strain Fischer 344, males, site: lip + palate + tongue, lesion: squamous-cell carcinoma + squamous-cell papilloma, dosed 94 weeks, study length 104 weeks): 163 mg/kg/day
- TD50 (rat, strain Fischer 344, males, site: lip + palate + tongue, lesion: squamous-cell carcinoma, dosed 94 weeks, study length 104 weeks): 178 mg/kg/day
- TD50 (rat, strain Fischer 344, males, site: liver, lesion: hepatocellular adenoma + hepatocellular carcinoma + neoplastic nodule, dosed 94 weeks, study length 104 weeks): 1030 mg/kg/day
- TD50 (rat, strain Fischer 344, males, site: multiple organs, lesion: mononuclear-cell leukemia, dosed 94 weeks, study length 104 weeks): 128 mg/kg/day
- TD50 (rat, strain Fischer 344, males, site: nasal cavity, lesion: adenocarcinoma + carcinoma, NOS + squamous-cell carcinoma, dosed 94 weeks, study length 104 weeks): 29.7 mg/kg/day
- TD50 (rat, strain Fischer 344, males, site: nasal cavity, lesion: adenocarcinoma, NOS, dosed 94 weeks, study length 104 weeks): 70.1 mg/kg/day
- TD50 (rat, strain Fischer 344, males, site: nasal cavity, lesion: carcinoma, NOS + squamous-cell carcinoma, dosed 94 weeks, study length 104 weeks): 52.1 mg/kg/day
- TD50 (rat, strain Fischer 344, males, site: nasal cavity, lesion: carcinoma, NOS, dosed 94 weeks, study length 104 weeks): 63.4 mg/kg/day
- TD50 (rat, strain Fischer 344, males, site: nasal cavity, lesion: squamous-cell carcinoma, dosed 94 weeks, study length 104 weeks): 297 mg/kg/day
- TD50 (rat, strain Fischer 344, males, site: testis, lesion: interstitial-cell tumor, dosed 94 weeks, study length 104 weeks): 13.9 mg/kg/day
- TD50 (rat, strain Fischer 344, males, site: tongue, lesion: squamous-cell carcinoma + squamous-cell papilloma, dosed 94 weeks, study length 104 weeks): 415 mg/kg/day
- TD50 (rat, strain Fischer 344, males, site: tongue, lesion: squamous-cell carcinoma, dosed 94 weeks, study length 104 weeks): 469 mg/kg/day
